Here are results for 21 molecules from US7384949B2, “Thieno(3,2-d)pyrimidines and furano(3,2-d)pyrimidines and their use as purinergic receptor antagonists” (Vernalis Research Limited, priority 2001, dated 2008).

Data set [1] deals with human adenosine A2A receptors (Homo sapiens, UniProt P29274). Briefly: in vitro binding to human adenosine A2A receptors, displacement of [3H]-CGS 21680. As to conditions: hA2A receptors, radioligand [3H]-CGS 21680. From the text:
Adenosine Receptor Binding Binding Affinities at hA2A Receptors
(In general: In a radioligand displacement assay an active substance lowers the binding of a labelled ligand.)

For the next data set, the system named is Parkinsonian patients. As to conditions: cited from earlier work.
A further data set concerns catalepsy. As to conditions: cited from earlier work.

Chain of human adenosine A2A receptors (P29274 whole entry): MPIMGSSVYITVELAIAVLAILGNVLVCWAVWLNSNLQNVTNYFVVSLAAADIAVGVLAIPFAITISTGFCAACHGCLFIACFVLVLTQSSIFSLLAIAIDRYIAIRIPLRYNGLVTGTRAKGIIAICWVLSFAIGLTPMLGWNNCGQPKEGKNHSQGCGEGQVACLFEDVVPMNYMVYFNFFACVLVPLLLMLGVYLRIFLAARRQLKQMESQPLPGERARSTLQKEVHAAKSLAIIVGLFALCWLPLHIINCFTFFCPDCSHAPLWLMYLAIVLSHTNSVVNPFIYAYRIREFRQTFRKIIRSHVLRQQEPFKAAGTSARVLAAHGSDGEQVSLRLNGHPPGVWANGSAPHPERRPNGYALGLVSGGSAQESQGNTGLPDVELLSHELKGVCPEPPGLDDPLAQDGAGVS

Regarding `ClCCc1nc(-c2nccs2)c2sccc2n1` [Example 154, 2-(2-chloroethyl)-4-(2-thiazolyl)thieno[3,2-d]pyrimidine], the affinity in data set [1], expressed as Ki, was 6 nM.
Same read-out and setting: to `Nc1nc(-c2ccco2)c2sccc2n1` [Example 79, 4-(2-furyl)thieno[3,2-d]pyrimidine-2-amine] belongs 14 nM.
With `Cn1c(=O)c2[nH]cnc2n(C)c1=O` [theophylline, 1,3-dimethylxanthine], the “mean objective disability scores” value in the data set on Parkinsonian patients (15 Parkinsonian patients, up to 12 weeks, 150 mg/day) is listed as “significant improvements”. The “patients reporting moderate or marked subjective improvement” value in the data set on Parkinsonian patients (of 15 Parkinsonian patients, up to 12 weeks, 150 mg/day) was 11. Also, the serum theophylline levels in the data set on Parkinsonian patients (slow release oral preparation 150 mg/day, after one week) is recorded as 4.44 mg/L.
Regarding `OCCNc1nc(-c2ccco2)c2scc(Br)c2n1` [Example 15, 7-bromo-4-(2-furyl)-N-(2-hydroxyethyl)thieno[3,2-d]pyrimidine-2-amine], the melting point – broadly, the temperature of the solid-liquid transition – lay within 173.4 to 174.4 °C. Besides, the Ki (usually the dissociation constant of the complex between target and ligand, obtained from inhibition or displacement) in data set [1] came out at 11 nM.
In data set [1], `Cc1cnc(-c2nc(N(C)C)nc3ccsc23)s1` [Example 104, N,N-dimethyl-4-(5-methyl-2-thiazolyl)thieno[3,2-d]pyrimidine-2-amine] had an inhibition constant Ki of 5 nM.
In the case of `CC(C)c1nc(-c2nccs2)c2sccc2n1` [Example 113, 2-isopropyl-4-(2-thiazolyl)thieno[3,2-d]pyrimidine], affinity in data set [1] was put at a Ki of 1 nM. Against the preceding molecule, the Ki is about 5-fold lower.
In data set [1], `O=C(NCCNc1nc(-c2ccco2)c2sccc2n1)OCc1ccccc1` [Example 89, benzyl (2-(4-(2-furyl)thieno[3,2-d]pyrimidine-2-ylamino)ethyl)carbamate] displayed a Ki of 20 nM.
In the case of `CC(C)(C)c1nc(-c2nccs2)c2sccc2n1` [Example 139, 2-tert-butyl-4-(2-thiazolyl)thieno[3,2-d]pyrimidine], the inhibitory constant (Ki) in data set [1] came out at 3 nM.
Turning to `CCCn1c(=O)c2c(nc(/C=C/c3ccc(OC)c(OC)c3)n2C)n(CCC)c1=O` [KF 17837, (E)-8-(3,4-dimethoxystyryl)-1,3-dipropyl-7-methylxanthine], in the data set on catalepsy (in vivo), the “anticataleptic effects of a subthreshold dose of L-DOPA plus benserazide” value is given as “potentiated”; the “catalepsy induced by haloperidol and reserpine” value is “reduced”. The “cataleptic responses induced by intracerebroventricular CGS 21680” value in the data set on catalepsy (oral administration) was “significantly ameliorated”.
For the molecule `CC(C)c1nc(-c2ccccn2)c2sccc2n1` [Example 70, 2-isopropyl-4-(2-pyridyl)thieno[3,2-d]pyrimidine], the inhibition constant (Ki) in data set [1] worked out at 4 nM. This lies in the single-digit nanomolar range.
In data set [1], `Cc1nc(-c2nc(N(C)C)nc3ccsc23)sc1C` [Example 105, N,N-dimethyl-4-(4,5-dimethyl-2-thiazolyl)thieno[3,2-d]pyrimidine-2-amine] had a Ki of 6 nM.
Take `CCc1nc(-c2nccs2)c2sccc2n1` [Example 82, 2-ethyl-4-(2-thiazolyl)thieno[3,2-d]pyrimidine]: in data set [1], the inhibitory constant (Ki) turned out to be 2 nM. This Ki is about 3-fold lower than that of the molecule before.
In the case of `CN(C)c1nc(-c2nccs2)c2sccc2n1` [Example 65, N,N-dimethyl-4-(2-thiazolyl)thieno[3,2-d]pyrimidine-2-amine], the Ki in data set [1] came to 2 nM.
Molecule `C=CCNc1nc(-c2ccco2)c2sccc2n1` [Example 40, N-allyl-4-(2-furyl)thieno[3,2-d]pyrimidine-2-amine] returned a melting point of 101 to 102 °C. The molecule also returned an inhibition constant (Ki) in data set [1] of 19 nM.
Turning to `COCCNc1nc(-c2ccco2)c2scc(Br)c2n1` [Example 71], the melting point was 65 to 65.4 °C. Besides, in data set [1], the inhibition constant Ki came to 8 nM.
Turning to `Nc1nc(-c2nccs2)c2sccc2n1` [Example 110, 4-(2-thiazolyl)thieno[3,2-d]pyrimidine-2-amine], the affinity in data set [1] corresponds to a Ki of 35 nM.
Take `CCc1nc(-c2nc(C)cs2)c2sccc2n1` [Example 80, 2-ethyl-4-(4-methyl-2-thiazolyl)thieno[3,2-d]pyrimidine]: the affinity in data set [1] corresponds to a Ki of 1 nM.
`Clc1nc(-c2cnccn2)c2sccc2n1` [Example 30, 2-chloro-4-(2-pyrazinyl)thieno[3,2-d]pyrimidine] had a melting point of 183.2 to 183.8 °C.
`CN(C)c1nc(-c2ccsc2)c2sccc2n1` [Example 157, N,N-dimethyl-4-(3-thienyl)thieno[3,2-d]pyrimidine-2-amine] yielded a melting point of 119 to 119.4 °C.
As for `Clc1nc(-c2ccoc2)c2sccc2n1` [Example 160, 2-chloro-4-(3-furyl)thieno[3,2-d]pyrimidine], the melting point is 129.3 to 129.9 °C.
The same measure, in the same setting: to `Cc1nc(-c2nc(Cl)nc3ccsc23)sc1C` [Example 103, 2-chloro-4-(4,5-dimethyl-2-thiazolyl)thieno[3,2-d]pyrimidine] belongs 240 to 241 °C.
